Assay [1] deals with T1, Cbl-b (Homo sapiens, UniProt Q13191). In words: Cbl-b inhibition assay (Cbl-b activity assay, FRET, Biological Example 1; 100 mM NaCl, 60 nM Src kinase). The class given is biochemical. Conditions: upper bound stated in text lists; read-out: IC50 values in the Cbl-b inhibition assay of Biological Example 1. In short, it runs like this: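 Here, the E2 UbcH5B, irreversibly linked to Bodipy-fluorescein ubiquitin, binds Cbl-b once Src kinase phosphorylates it; Cbl-b carries an N-terminal biotinylated Avi-tag captured by streptavidin-terbium. An absent FRET signal indicates inhibition.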
T1 sequence (Q13191 36-427): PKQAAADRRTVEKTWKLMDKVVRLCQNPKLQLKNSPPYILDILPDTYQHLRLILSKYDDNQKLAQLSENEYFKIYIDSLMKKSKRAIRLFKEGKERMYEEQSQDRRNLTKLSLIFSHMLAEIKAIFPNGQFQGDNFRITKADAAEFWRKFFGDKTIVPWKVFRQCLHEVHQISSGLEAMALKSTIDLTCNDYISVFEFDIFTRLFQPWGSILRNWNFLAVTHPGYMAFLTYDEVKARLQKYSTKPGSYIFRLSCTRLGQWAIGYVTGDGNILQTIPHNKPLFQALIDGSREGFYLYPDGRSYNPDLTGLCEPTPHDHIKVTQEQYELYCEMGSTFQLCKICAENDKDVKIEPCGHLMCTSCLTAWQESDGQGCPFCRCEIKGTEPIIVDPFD

The subject of assay [2] is T-cell. In words: IL-2 secretion from T-cells co-stimulated with anti-CD3 and anti-CD28 antibody (Biological Example 2). The class given is cell-based, human. Conditions: Homo sapiens, T-cell, fold change over baseline (anti-CD3/anti-CD28 stimulated T-cells without inhibitor), read-out: IL-2 secretion Anti-CD3/Anti-CD28 stimulation; for fold induction at 0.3 µM: 0.3 μM Cbl-b inhibitor; for fold induction at 1 µM: 1 μM Cbl-b inhibitor. In short, it runs like this: (§1)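 T-cells were stimulated with anti-CD3 antibody alone or with anti-CD28 antibody, in the presence or absence of Cbl-b inhibitor. IL-2 secretion or CD25 surface staining was measured, and values expressed as fold over the uninhibited baseline […].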

Assay [3] relates to T-cell. In words: IL-2 secretion from T-cells stimulated with anti-CD3 antibody alone (Biological Example 2). The class given is cell-based, human. Conditions: Homo sapiens, T-cell; 1 μM Cbl-b inhibitor; fold change over baseline (anti-CD3/anti-CD28 stimulated T-cells without inhibitor); read-out: IL-2 secretion Anti-CD3 stimulation.
Assay [4] deals with T-cell. Kind of assay: CD25 cell surface staining on T-cells co-stimulated with anti-CD3 and anti-CD28 antibody (Biological Example 2). Type of assay: cell-based, human. Conditions: Homo sapiens, T-cell, fold change over baseline (anti-CD3/anti-CD28 stimulated T-cells without inhibitor), read-out: CD25 staining Anti-CD3/Anti-CD28 stimulation; for fold induction at 0.3 µM: 0.3 μM Cbl-b inhibitor; for fold induction at 1 µM: 1 μM Cbl-b inhibitor. In short, it runs like this:
as §1

Assay [5] has as its system T-cell. Kind of assay: CD25 cell surface staining on T-cells stimulated with anti-CD3 antibody alone (Biological Example 2). Conditions: Homo sapiens, T-cell; 1 μM Cbl-b inhibitor; fold change over baseline (anti-CD3/anti-CD28 stimulated T-cells without inhibitor); read-out: CD25 staining Anti-CD3 stimulation. Type of assay: cell-based, human.
Assay [6] addresses T1, Cbl-b. Kind of assay: Cbl-b activity assay (Cbl-b inhibition assay), TR-FRET of Cbl-b interaction with UbcH5B-Ub. The class given is biochemical. Conditions: assay buffer with 100 mM NaCl, 60 nM Src kinase; read-out: Cbl-b activity IC50. In short, it runs like this:
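UbcH5B (C85K) conjugated to N-terminally Bodipy-Fluorescein-labeled ubiquitin served as the fluorescent partner. After compound preincubation, Src kinase (60 nM) with 1 mM ATP and 5 mM MgCl2 (final) was added for 1.5 h, followed by a further 1 h incubation. Some values were obtained with 50 mM NaCl and 30 nM Src.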
(Time-resolved FRET reads energy transfer from a long-lived donor to a nearby acceptor.)

Each structure is given as a SMILES string.

Broadly, the IC50 is the midpoint of a concentration-inhibition curve.

On to `CN1CCN(c2cc3c(c(C(F)(F)F)c2)CN(c2cccc(C4(Cc5nncn5C)COC4)c2)C3=O)CC12CC2` [Example 583, 2-(3-(3-((4-Methyl-4H-1,2,4-triazol-3-yl)methyl)oxetan-3-yl)phenyl)-6-(4-methyl-4,7-diazaspiro[2.5]octan-7-yl)-4-(trifluoromethyl)isoindolin-1-one], for which the values for the IC50 on Cbl-b [1] and at Cbl-b [6] were ≤ 0.1 µM and < 0.1 µM, respectively. The results for the fold induction at 0.3 µM with T-cell [2] and with T-cell [4] were 2.51 to 5 and 1.31 to 1.5, respectively. Moreover, the fold induction at 1 µM was 5 to 7.5 in the assay on T-cell [2], 0.151 to 0.2 in the assay with T-cell [3], 1.51 to 1.75 in the assay with T-cell [4] and > 1 with T-cell [5].
For `CC(c1cc2c(c(C3CC3)n1)CN(c1cccc(C3(Cc4nncn4C)COC3)c1)C2=O)N1CCCC1` (stereo not drawn) [Example 584, 4-Cyclopropyl-2-(3-(3-((4-methyl-4H-1,2,4-triazol-3-yl)methyl)oxetan-3-yl)phenyl)-6-(l-(pyrrolidin-1-yl)ethyl)-2,3-dihydro-1H-pyrrolo[3,4-c]pyridin-1-one], the IC50 is ≤ 0.1 µM on Cbl-b [1] and < 0.1 µM on Cbl-b [6]. Besides, the figures for the fold induction at 0.3 µM in the assay on T-cell [2] and in the assay on T-cell [4] were 1.01 to 2.5 and 1.01 to 1.3, respectively. Further, the fold induction at 1 µM with T-cell [2] is 2.51 to 5; in the assay with T-cell [3] it was < 0.05; with T-cell [4], 1.01 to 1.3; in the assay on T-cell [5] it was 0.601 to 0.8.
`CC(c1cc2c(c(C3CC3)n1)CN(c1cccc(C3(Cc4nncn4C)COC3)c1)C2=O)N1CCC2(CC2)C1` (centres unmarked) [Example 585, 6-(1-(5-Azaspiro[2.4]heptan-5-yl)ethyl)-4-cyclopropyl-2-(3-(3-((4-methyl-4H-1,2,4-triazol-3-yl)methyl)oxetan-3-yl)phenyl)-2,3-dihydro-1H-pyrrolo[3,4-c]pyridin-1-one]: the IC50 at Cbl-b [1] was ≤ 0.1 µM; on Cbl-b [6] it was < 0.1 µM. In addition, the figures for the fold induction at 0.3 µM in the assay with T-cell [2] and in the assay on T-cell [4] were 2.51 to 5 and 1.01 to 1.3, respectively. In addition, the fold induction at 1 µM with T-cell [2] was 5 to 7.5; in the assay with T-cell [3], 0.051 to 0.1; with T-cell [4], 1.01 to 1.3; in the assay on T-cell [5], 0.801 to 1.
`CC(c1cc2c(c(C3CC3)n1)CN(c1cccc(C3(Cc4nncn4C)COC3)c1)C2=O)N1CC2(CC2)C1` (centres unmarked) [Example 586, 6-(1-(5-Azaspiro[2.3]hexan-5-yl)ethyl)-4-cyclopropyl-2-(3-(3-((4-methyl-4H-1,2,4-triazol-3-yl)methyl)oxetan-3-yl)phenyl)-2,3-dihydro-1H-pyrrolo[3,4-c]pyridin-1-one]: the IC50 at Cbl-b [1] is ≤ 0.1 µM; at Cbl-b [6], < 0.1 µM. The fold induction at 0.3 µM was 1.01 to 2.5 in the assay on T-cell [2] and 1.01 to 1.3 in the assay on T-cell [4]. Moreover, the fold induction at 1 µM in the assay with T-cell [2] was 2.51 to 5; in the assay with T-cell [3], < 0.05; in the assay with T-cell [4] it was 1.01 to 1.3; in the assay with T-cell [5], 0.601 to 0.8.
As to `CC(c1cc2c(c(C3CC3)n1)CN(c1cccc(C3(Cc4nncn4C)COC3)c1)C2=O)N1CCCCC1` (stereo not drawn) [Example 587, 4-Cyclopropyl-2-(3-(3-((4-methyl-4H-1,2,4-triazol-3-yl)methyl)oxetan-3-yl)phenyl)-6-(l-(piperidin-1-yl)ethyl)-2,3-dihydro-1H-pyrrolo[3,4-c]pyridin-1-one], the IC50 was ≤ 0.1 µM at Cbl-b [1] and < 0.1 µM on Cbl-b [6]. Also, the fold induction at 0.3 µM in the assay on T-cell [2] was 5 to 7.5; in the assay on T-cell [4], > 1.76. In addition, the fold induction at 1 µM in the assay with T-cell [2] was > 7.5; in the assay on T-cell [3], > 0.201; in the assay on T-cell [4] it was > 1.76; in the assay on T-cell [5] it was 0.601 to 0.8.
Turning to `CC1C(C(F)(F)F)CCN1Cc1cc2c(c(C(F)(F)F)c1)CN(c1cccc(C3(Cc4nncn4C)COC3)c1)C2=O` (centres unmarked) [Example 588, 6-((2-Methyl-3-(trifluoromethyl)pyrrolidin-1-yl)methyl)-2-(3-(3-((4-methyl-4H-1,2,4-triazol-3-yl)methyl)oxetan-3-yl)phenyl)-4-(trifluoromethyl)isoindolin-1-one], the values for the IC50 on Cbl-b [1] and on Cbl-b [6] were ≤ 0.1 µM and < 0.1 µM, respectively. In addition, the fold induction at 0.3 µM in the assay on T-cell [2] lay within 5 to 7.5; with T-cell [4], 1.01 to 1.3. Besides, the fold induction at 1 µM in the assay with T-cell [2] is > 7.5; in the assay with T-cell [3], 0.051 to 0.1; in the assay with T-cell [4], 1.31 to 1.5; with T-cell [5], > 1.
Take `Cn1cnnc1CC1(c2cccc(NC(=O)c3cc(CN4CCCCC4)nc(C4CC4)n3)c2)COC1` [Example 589, 2-Cyclopropyl-N-(3-(3-((4-methyl-4H-1,2,4-triazol-3-yl)methyl)oxetan-3-yl)phenyl)-6-(piperidin-1-ylmethyl)pyrimidine-4-carboxamide]: the IC50 on Cbl-b [1] is ≤ 0.1 µM; at Cbl-b [6], < 0.1 µM. Also, the fold induction at 0.3 µM is > 7.5 with T-cell [2] and > 1.76 in the assay on T-cell [4]. Besides, the fold induction at 1 µM in the assay on T-cell [2] is > 7.5; with T-cell [3], > 0.201; in the assay with T-cell [4], > 1.76; in the assay on T-cell [5], > 1.
On to `CC(c1cc(C(=O)Nc2cccc(C3(Cc4nncn4C)COC3)c2)nc(C2CC2)n1)N1CCCC1` (stereo not drawn) [Example 593, 2-Cyclopropyl-N-(3-(3-((4-methyl-4H-1,2,4-triazol-3-yl)methyl)oxetan-3-yl)phenyl)-6-(l-(pyrrolidin-1-yl)ethyl)pyrimidine-4-carboxamide], for which the IC50 at Cbl-b [1] is ≤ 0.1 µM; at Cbl-b [6], < 0.1 µM. In addition, the fold induction at 0.3 µM was > 7.5 with T-cell [2] and 1.31 to 1.5 with T-cell [4]. Besides, the fold induction at 1 µM in the assay on T-cell [2] is > 7.5; with T-cell [3], > 0.201; in the assay with T-cell [4], 1.31 to 1.5; in the assay with T-cell [5] it was > 1.
For the compound `Cn1cnnc1CC1(c2cccc(N3Cc4c(cc(N5CC(C(F)F)C5)cc4C(F)(F)F)C3=O)c2)COC1` [Example 594, 6-(3-(Difluoromethyl)azetidin-1-yl)-2-(3-(3-((4-methyl-4H-1,2,4-triazol-3-yl)methyl)oxetan-3-yl)phenyl)-4-(trifluoromethyl)isoindolin-1-one], the IC50 on Cbl-b [1] is ≤ 0.1 µM; at Cbl-b [6], < 0.1 µM. In addition, the fold induction at 0.3 µM in the assay on T-cell [2] is 2.51 to 5; in the assay with T-cell [4], 1.01 to 1.3. Besides, the fold induction at 1 µM with T-cell [2] lay within 5 to 7.5; in the assay on T-cell [3], 0.051 to 0.1; with T-cell [4], 1.01 to 1.3; with T-cell [5], 0.801 to 1.
Turning to `Cn1cnnc1CC1(c2cccc(N3Cc4c(cc(OC(F)F)cc4C(F)(F)F)C3=O)c2)COC1` [Example 595, 6-(Difluoromethoxy)-2-(3-(3-((4-methyl-4H-1,2,4-triazol-3-yl)methyl)oxetan-3-yl)phenyl)-4-(trifluoromethyl)isoindolin-1-one], the IC50 was ≤ 0.1 µM at Cbl-b [1] and < 0.1 µM at Cbl-b [6]. Further, the fold induction at 0.3 µM lay within 2.51 to 5 in the assay with T-cell [2] and 1.01 to 1.3 with T-cell [4]. Also, the fold induction at 1 µM in the assay on T-cell [2] lay within 5 to 7.5; in the assay on T-cell [3], 0.051 to 0.1; in the assay with T-cell [4], 1.31 to 1.5; with T-cell [5], 0.801 to 1.

The record behind these values is patent publication US20220324835A1 (Nurix Therapeutics, Inc., priority 2018, published 2022).
